Assays:
Format in all cases: biochemical
Parameters in all cases: from tissue
MAGL = target: T1, MAGL (Mus musculus, UniProt O35678); assay: In vitro competitive ABPP, % inhibition at fixed concentration, MAGL
T1 sequence (O35678 1-303): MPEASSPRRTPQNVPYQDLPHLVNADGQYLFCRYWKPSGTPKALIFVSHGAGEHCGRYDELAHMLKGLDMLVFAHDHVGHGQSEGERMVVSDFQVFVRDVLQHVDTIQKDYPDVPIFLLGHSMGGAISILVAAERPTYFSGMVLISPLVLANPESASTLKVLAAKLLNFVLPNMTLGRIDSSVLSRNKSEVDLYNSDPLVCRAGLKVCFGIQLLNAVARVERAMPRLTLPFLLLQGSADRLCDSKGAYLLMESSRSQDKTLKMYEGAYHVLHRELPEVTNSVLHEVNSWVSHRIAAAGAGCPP
Method: (§1) In Vitro Competitive Activity-Based Protein Profiling.
(§2) Proteomes (mouse brain membrane fraction or cell lysates) (50 μL, 1.0 mg/ml total protein concentration) were preincubated with varying concentrations of inhibitors at 37° C. After 30 min, FP-Rh (1.0 μL, 50 μM in DMSO) was added and the mixture was incubated for another 30 min at 37° C. Reactions were quenched with SDS loading buffer (50 μL—4×) and run on SDS-PAGE. Following gel imaging, serine hydrolase activity was determined by measuring fluorescent intensity of gel bands corresponding to MAGL, ABHD6 and FAAH using ImageJ 1.43u software.

FAAH = target: T2, FAAH (Mus musculus, UniProt O08914); assay: In vitro competitive ABPP, % inhibition at fixed concentration, FAAH
T2 sequence (O08914 1-579): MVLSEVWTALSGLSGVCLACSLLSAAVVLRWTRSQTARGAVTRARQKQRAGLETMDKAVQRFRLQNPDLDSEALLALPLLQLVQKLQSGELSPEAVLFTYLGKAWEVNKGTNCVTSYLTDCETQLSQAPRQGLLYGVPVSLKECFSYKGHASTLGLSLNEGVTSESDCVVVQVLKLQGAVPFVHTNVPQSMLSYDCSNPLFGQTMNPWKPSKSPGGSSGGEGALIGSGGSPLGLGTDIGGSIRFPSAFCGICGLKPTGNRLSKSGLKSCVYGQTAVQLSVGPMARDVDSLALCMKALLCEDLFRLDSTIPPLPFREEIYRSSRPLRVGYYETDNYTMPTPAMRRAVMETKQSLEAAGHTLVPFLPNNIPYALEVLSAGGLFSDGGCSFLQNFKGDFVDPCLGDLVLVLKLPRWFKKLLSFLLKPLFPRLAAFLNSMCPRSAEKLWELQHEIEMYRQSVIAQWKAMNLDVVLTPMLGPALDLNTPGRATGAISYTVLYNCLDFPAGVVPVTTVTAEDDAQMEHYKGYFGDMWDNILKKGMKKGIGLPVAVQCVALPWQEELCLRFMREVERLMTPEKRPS
Method: as §1, §2

ABHD6 = target: T3, ABHD6 (Mus musculus, UniProt Q8R2Y0); assay: In vitro competitive ABPP, % inhibition at fixed concentration, ABHD6
T3 sequence (Q8R2Y0 1-336): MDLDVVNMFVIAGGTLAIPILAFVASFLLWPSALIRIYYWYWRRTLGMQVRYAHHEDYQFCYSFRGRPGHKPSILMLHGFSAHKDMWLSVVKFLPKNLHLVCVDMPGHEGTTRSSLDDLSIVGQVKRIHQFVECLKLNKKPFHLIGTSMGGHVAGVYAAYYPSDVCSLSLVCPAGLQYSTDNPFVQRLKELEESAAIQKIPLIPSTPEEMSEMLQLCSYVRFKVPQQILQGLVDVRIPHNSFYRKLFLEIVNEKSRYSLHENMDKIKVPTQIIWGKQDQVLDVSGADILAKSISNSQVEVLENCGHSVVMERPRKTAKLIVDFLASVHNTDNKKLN
Method: as §1, §2

| inhibition at 1 µM (MAGL) [%] | inhibition at 1 µM (FAAH) [%] | inhibition at 1 µM (ABHD6) [%] | inhibition at 10 µM (MAGL) [%] | inhibition at 10 µM (FAAH) [%] | inhibition at 10 µM (ABHD6) [%] | SMILES |
| --- | --- | --- | --- | --- | --- | --- |
| 25 to 75 | < 25 | 25 to 75 | – | – | – | O=C(ON1C(=O)CCC1=O)N1CCN(Cc2cc(-c3ccccc3)on2)CC1 [Example 137, 2,5-Dioxopyrrolidin-1-yl 4-((5-phenylisoxazol-3-yl)methyl)piperazine-1-carboxylate] |
| 25 to 75 | < 25 | 25 to 75 | – | – | – | Cn1cc(CN2CCN(C(=O)ON3C(=O)CCC3=O)CC2)c(-c2ccccc2Cl)n1 [Example 140, 2,5-Dioxopyrrolidin-1-yl 4-{[3-(2-chlorophenyl)-1-methyl-1H-pyrazol-4-yl]methyl}piperazine-1-carboxylate] |
| 25 to 75 | < 25 | 25 to 75 | – | – | – | CC(C)n1cc(CN2CCN(C(=O)ON3C(=O)CCC3=O)CC2)c(-c2ccccc2)n1 [Example 141, 2,5-Dioxopyrrolidin-1-yl 4-{[3-phenyl-1-(propan-2-yl)-1H-pyrazol-4-yl]methyl}piperazine-1-carboxylate] |
| 25 to 75 | < 25 | 25 to 75 | – | – | – | CC(C)n1cc(CN2CCN(C(=O)ON3C(=O)CCC3=O)CC2)c(-c2ccccc2Cl)n1 [Example 142, 2,5-Dioxopyrrolidin-1-yl 4-{[3-(2-chlorophenyl)-1-(propan-2-yl)-1H-pyrazol-4-yl]methyl}piperazine-1-carboxylate] |
| 25 to 75 | < 25 | 25 to 75 | – | – | – | Cc1cc(CN2CCN(C(=O)ON3C(=O)CCC3=O)CC2)n(C(C)C)n1 [Example 146, 2,5-Dioxopyrrolidin-1-yl 4-{[3-methyl-1-(propan-2-yl)-1H-pyrazol-5-yl]methyl}piperazine-1-carboxylate] |
| < 25 | < 25 | < 25 | – | – | – | O=C(ON1C(=O)CCC1=O)N1CCN(Cc2cnc3ccccn23)CC1 [Example 147, 2,5-Dioxopyrrolidin-1-yl 4-(imidazo[1,2-a]pyridin-3-ylmethyl)piperazine-1-carboxylate] |
| – | – | – | > 75 | < 25 | 25 to 75 | O=C(ON1C(=O)CCC1=O)N1CCN(C(c2ccc3c(c2)OC(F)(F)O3)c2ccc3c(c2)OC(F)(F)O3)CC1 [Example 150, 2,5-Dioxopyrrolidin-1-yl 4-[bis(2,2-difluoro-2H-1,3-benzodioxol-5-yl)methyl]piperazine-1-carboxylate] |
| 25 to 75 | < 25 | 25 to 75 | – | – | – | Cn1ncc2cc(C(c3ccc4c(cnn4C)c3)N3CCN(C(=O)ON4C(=O)CCC4=O)CC3)ccc21 [Example 154, 2,5-dioxopyrrolidin-1-yl 4-(bis(1-methyl-1H-indazol-5-yl)methyl)piperazine-1-carboxylate] |
| 25 to 75 | < 25 | < 25 | – | – | – | O=C(ON1C(=O)CCC1=O)N1CCN(C(c2cccnc2)c2cccnc2)CC1 [Example 155, 2,5-Dioxopyrrolidin-1-yl 4-(di(pyridin-3-yl)methyl)piperazine-1-carboxylate] |
| 25 to 75 | < 25 | 25 to 75 | – | – | – | O=C(ON1C(=O)CCC1=O)N1CCN(C(c2ccc3c(c2)OCO3)c2ccc3c(c2)OCO3)CC1 [Example 156, 2,5-Dioxopyrrolidin-1-yl 4-[bis(2H-1,3-benzodioxol-5-yl)methyl]piperazine-1-carboxylate] |
| 25 to 75 | < 25 | 25 to 75 | – | – | – | O=C(ON1C(=O)CCC1=O)N1CCN(C(c2ccc3c(c2)COC3)c2ccc3c(c2)COC3)CC1 [Example 157, 2,5-Dioxopyrrolidin-1-yl 4-[bis(1,3-dihydro-2-benzofuran-5-yl)methyl]piperazine-1-carboxylate] |
| 25 to 75 | < 25 | < 25 | – | – | – | O=C(ON1C(=O)CCC1=O)N1CCC(C(O)(c2ccc3c(c2)COC3)c2ccc3c(c2)COC3)CC1 [Example 158, 2,5-Dioxopyrrolidin-1-yl 4-[bis(1,3-dihydro-2-benzofuran-5-yl)(hydroxy)methyl]piperidine-1-carboxylate] |
| 25 to 75 | < 25 | 25 to 75 | – | – | – | Cc1cc(-c2ccc(CN3CCN(C(=O)ON4C(=O)CCC4=O)CC3)c(C)c2)ccn1 [Example 159, 2,5-Dioxopyrrolidin-1-yl 4-{[2-methyl-4-(2-methylpyridin-4-yl)phenyl]methyl}piperazine-1-carboxylate] |
| > 75 | < 25 | > 75 | – | – | – | O=C(ON1C(=O)CCC1=O)N1CCN(Cc2ccc(-c3cccc(F)c3)cc2F)CC1 [Example 162, 2,5-Dioxopyrrolidin-1-yl 4-{[2-fluoro-4-(3-fluorophenyl)phenyl]methyl}piperazine-1-carboxylate] |
| 25 to 75 | < 25 | 25 to 75 | – | – | – | Cc1cccc(-c2ccc(CN3CCN(C(=O)ON4C(=O)CCC4=O)CC3)c(C)c2)c1 [Example 163, 2,5-Dioxopyrrolidin-1-yl 4-{[2-methyl-4-(3-methylphenyl)phenyl]methyl}piperazine-1-carboxylate] |
| > 75 | < 25 | > 75 | – | – | – | O=C(ON1C(=O)CCC1=O)N1CCN(Cc2ccc(-c3ccccc3)cc2F)CC1 [Example 164, 2,5-Dioxopyrrolidin-1-yl 4-[(2-fluoro-4-phenylphenyl)methyl]piperazine-1-carboxylate] |
| 25 to 75 | < 25 | > 75 | – | – | – | Cc1cc(-c2ccc(CN3CCN(C(=O)ON4C(=O)CCC4=O)CC3)c(F)c2)ccn1 [Example 166, 2,5-Dioxopyrrolidin-1-yl 4-{[2-fluoro-4-(2-methylpyridin-4-yl)phenyl]methyl}piperazine-1-carboxylate] |
| > 75 | < 25 | 25 to 75 | – | – | – | COc1cc(-c2ccccc2)ccc1CN1CCN(C(=O)ON2C(=O)CCC2=O)CC1 [Example 167, 2,5-Dioxopyrrolidin-1-yl 4-[(2-methoxy-4-phenylphenyl)methyl]piperazine-1-carboxylate] |
| 25 to 75 | < 25 | 25 to 75 | – | – | – | O=C(ON1C(=O)CCC1=O)N1CCN(Cc2ccc(-c3cccc(F)c3)cn2)CC1 [Example 168, 2,5-Dioxopyrrolidin-1-yl 4-{[5-(3-fluorophenyl)pyridin-2-yl]methyl}piperazine-1-carboxylate] |
| 25 to 75 | < 25 | > 75 | – | – | – | Cc1cccc(-c2ccc(CN3CCN(C(=O)ON4C(=O)CCC4=O)CC3)c(Oc3ccccc3)c2)c1 [Example 169, 2,5-Dioxopyrrolidin-1-yl 4-{[4-(3-methylphenyl)-2-phenoxyphenyl]methyl}piperazine-1-carboxylate] |
| 25 to 75 | < 25 | 25 to 75 | – | – | – | Cc1cc(-c2cccnc2C)ccc1CN1CCN(C(=O)ON2C(=O)CCC2=O)CC1 [Example 170, 2,5-Dioxopyrrolidin-1-yl 4-{[2-methyl-4-(2-methylpyridin-3-yl)phenyl]methyl}piperazine-1-carboxylate] |
| 25 to 75 | < 25 | 25 to 75 | – | – | – | Cc1cc(-c2ccncc2C)ccc1CN1CCN(C(=O)ON2C(=O)CCC2=O)CC1 [Example 171, 2,5-Dioxopyrrolidin-1-yl 4-{[2-methyl-4-(3-methylpyridin-4-yl)phenyl]methyl}piperazine-1-carboxylate] |
| 25 to 75 | < 25 | 25 to 75 | – | – | – | Cc1cc(-c2cccnc2)ccc1CN1CCN(C(=O)ON2C(=O)CCC2=O)CC1 [Example 172, 2,5-Dioxopyrrolidin-1-yl 4-{[2-methyl-4-(pyridin-3-yl)phenyl]methyl}piperazine-1-carboxylate] |

— patent publication US9567302B2, “Carbamate compounds and of making and using same” (Abide Therapeutics, Inc., priority 2012, dated 2017)
